Measured values as given in PubChem BioAssay AID256 (DTP/NCI, 2004).
“And” between values parts separate entries of the source, which are not always exact repeats. Equal entries are not always repeated. Toxic doses and inconclusive results are not listed. How the source made its calls: active means survival T/C of 150% or more; inactive means T/C below 125% in these data.

Test system: CD2F1 mice, L1210 leukemia ip, survival T/C
Assay: NCI In Vivo Anticancer Drug Screen. Data for tumor model L1210 Leukemia (intraperitoneal) in CD2F1 (CDF1) mice
Details: endpoint: mean survival time, higher = longer survival
In short: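 Read-out first: treated-group measurement over vehicle-control measurement, expressed as a ratio. Animals bore a transplanted tumor line and were dosed with compound or vehicle.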

[1] = dose: 100.0 mg/kg/injection, schedule: Q04DX003 (ip), vehicle: saline with Tween-80
[2] = dose: 200.0 mg/kg/injection, schedule: Q04DX003 (ip), vehicle: saline with Tween-80
[3] = dose: 400.0 mg/kg/injection, schedule: Q04DX003 (ip), vehicle: saline with Tween-80
[4] = dose: 100.0 mg/kg/injection, schedule: Q01DX009 (ip), vehicle: saline with Tween-80
[5] = dose: 200.0 mg/kg/injection, schedule: Q01DX009 (ip), vehicle: saline with Tween-80
[6] = dose: 400.0 mg/kg/injection, schedule: Q01DX009 (ip), vehicle: saline with Tween-80
[7] = dose: 50.0 mg/kg/injection, schedule: Q04DX002 (ip), vehicle: saline with Tween-80
[8] = dose: 100.0 mg/kg/injection, schedule: Q04DX002 (ip), vehicle: saline with Tween-80

Measured: T/C

C=C(c1ccccc1)c1ccc(F)cc1
inactive: dose: 100.0 mg/kg/injection, schedule: Q01DX009 (ip), vehicle: saline sonified 102 % of control | [1] 100 % of control | dose: 200.0 mg/kg/injection, schedule: Q01DX009 (ip), vehicle: saline sonified 97 % of control | [2] 100 % of control | dose: 400.0 mg/kg/injection, schedule: Q01DX009 (ip), vehicle: saline sonified 103 % of control | [3] 102 % of control

CC(C)NCC(O)COc1cccc2ccccc12 (stereo unspecified)
inactive: dose: 4.0 mg/kg/injection, schedule: Q01DX009 (ip), vehicle: Klucel (hydroxypropylcellulose) (HPC) 94 % of control and 98 % of control and 103 % of control | dose: 8.0 mg/kg/injection, schedule: Q01DX009 (ip), vehicle: Klucel (hydroxypropylcellulose) (HPC) 94 % of control and 95 % of control and 98 % of control | dose: 16.0 mg/kg/injection, schedule: Q01DX009 (ip), vehicle: Klucel (hydroxypropylcellulose) (HPC) 91 % of control and 96 % of control and 101 % of control | dose: 32.0 mg/kg/injection, schedule: Q01DX009 (ip), vehicle: Klucel (hydroxypropylcellulose) (HPC) 87 % of control and 93 % of control and 96 % of control | dose: 64.0 mg/kg/injection, schedule: Q01DX009 (ip), vehicle: Klucel (hydroxypropylcellulose) (HPC) 84 % of control and 102 % of control and 105 % of control | dose: 128.0 mg/kg/injection, schedule: Q01DX009 (ip), vehicle: Klucel (hydroxypropylcellulose) (HPC) 120 % of control

Cc1ccc([N+](=O)[O-])cc1NC(=O)NNC(=O)CNC(=O)c1ccc(Cl)cc1
inactive: [4] 88 % of control | [5] 94 % of control | [6] 107 % of control

CC(=O)OC1CCC2C3CCC4=C(Cl)C(=O)CCC4C3CCC12C (stereo unspecified)
inactive: dose: 100.0 mg/kg/injection, schedule: Q04DX003 (sc), vehicle: steriod suspending solution 98 % of control | dose: 200.0 mg/kg/injection, schedule: Q04DX003 (sc), vehicle: steriod suspending solution 97 % of control | dose: 400.0 mg/kg/injection, schedule: Q04DX003 (sc), vehicle: steriod suspending solution 106 % of control

CCOC(=O)c1cnc2c(ccc3ncccc32)c1NCCCN(CC)CC
inactive: dose: 12.5 mg/kg/injection, schedule: Q01DX009 (ip), vehicle: Klucel (hydroxypropylcellulose) (HPC) 93 % of control | dose: 25.0 mg/kg/injection, schedule: Q01DX009 (ip), vehicle: Klucel (hydroxypropylcellulose) (HPC) 97 % of control | dose: 50.0 mg/kg/injection, schedule: Q01DX009 (ip), vehicle: Klucel (hydroxypropylcellulose) (HPC) 97 % of control

CCCCCCC(C)=O
inactive: [1] 98 % of control | [2] 96 % of control | [3] 91 % of control

O/N=C(\c1ccccc1)C1C(/C(=N/O)c2ccccc2)C1c1ccccc1 (stereo unspecified)
inactive: [7] 90 % of control | [8] 87 % of control

COC(=O)C(Cc1cnc[nH]1)NC(=O)c1ccccc1 (stereo unspecified)
inactive: [1] 103 % of control | [2] 104 % of control | [3] 97 % of control

O=C(CCCN1CCC(O)(c2ccc(C(F)(F)F)cc2)CC1)c1ccc(N2CCC(O)CC2)cc1
inactive: dose: 12.5 mg/kg/injection, schedule: Q04DX002 (ip), vehicle: saline with Tween-80 103 % of control | dose: 25.0 mg/kg/injection, schedule: Q04DX002 (ip), vehicle: saline with Tween-80 103 % of control | [7] 103 % of control

CNc1ncnc2[nH]cc([N+](=O)[O-])c12
inactive: dose: 75.0 mg/kg/injection, schedule: Q01DX001 (ip), vehicle: saline 96 % of control | dose: 150.0 mg/kg/injection, schedule: Q01DX001 (ip), vehicle: saline 106 % of control | dose: 300.0 mg/kg/injection, schedule: Q01DX001 (ip), vehicle: saline 106 % of control

CC(N(N=O)c1cccc(Cl)c1)S(=O)(=O)O (stereo unspecified)
inactive: [8] 101 % of control | dose: 200.0 mg/kg/injection, schedule: Q04DX002 (ip), vehicle: saline with Tween-80 97 % of control | dose: 400.0 mg/kg/injection, schedule: Q04DX002 (ip), vehicle: saline with Tween-80 86 % of control

COc1ccc(/C=C(/c2ccccc2)[Si](C)(C)C)cc1
inactive: dose: 100.0 mg/kg/injection, schedule: Q04DX003 (ip), vehicle: other 91 % of control | dose: 200.0 mg/kg/injection, schedule: Q04DX003 (ip), vehicle: other 96 % of control | dose: 400.0 mg/kg/injection, schedule: Q04DX003 (ip), vehicle: other 94 % of control

[Cl][Pt][Cl].c1ccc([AsH](CC[AsH](c2ccccc2)c2ccccc2)c2ccccc2)cc1
inactive: dose: 25.0 mg/kg/injection, schedule: Q04DX003 (ip), vehicle: saline with Tween-80 94 % of control | dose: 50.0 mg/kg/injection, schedule: Q04DX003 (ip), vehicle: saline with Tween-80 88 % of control | [1] 96 % of control

CCCCNC(=O)C1C2CCC(C2)C1C(=O)NCCCC (stereo unspecified)
inactive: [1] 98 % of control | [2] 98 % of control | [3] 90 % of control

c1ccc2c(c1)[nH]c1nc3ccncc3nc12
inactive: dose: 50.0 mg/kg/injection, schedule: Q01DX009 (ip), vehicle: saline 96 % of control | dose: 100.0 mg/kg/injection, schedule: Q01DX009 (ip), vehicle: saline 104 % of control | dose: 200.0 mg/kg/injection, schedule: Q01DX009 (ip), vehicle: saline 95 % of control

COc1ccccc1C1(O)c2ccccc2Sc2cccc(OC)c21 (stereo unspecified)
inactive: [4] 86 % of control | [5] 89 % of control | [6] 94 % of control

c1ccc(N=C(c2ccccc2)c2ccccc2)cc1
inactive: [1] 103 % of control | [2] 93 % of control | [3] 93 % of control
